One assay has as its system histamine-induced PPE. Description: Histamine-induced plasma protein extravasation in the lung. It is filed as in vivo, guinea-pigs. From the text: Briefly, guinea-pigs (male Dunkin Hartley, 300-400g) were given an intracardiac injection of iodinated human serum albumin (0.5µCi) in heparinised saline (10U.ml^-1).
The subject of assay [1] is Zymosan-induced Granylocyte-dependent PPE. Put plainly: Zymosan-induced granulocyte-dependent plasma protein extravasation in skin. Also on record: Zymosan-induced Granylocyte-dependent PPE: unit not given here. Type of assay: in vivo, guinea-pig. The procedure:
(§1) The effect of β2-adrenoreceptor agonists on granulocyte-dependent and independent vascular permeability induced in guinea-pig skin, by intradermal challenge with zymosan and histamine respectively, was evaluated using a modification of the method of Issekutz Lab. Invest .,45 , 435-441(1981).
(§2) Plasma protein extravasation (PPE) was calculated as µl plasma equivalents.

Assay [2] has as its system Histamine-induced Granulocyte Independent PPE. Description: Histamine-induced granulocyte-independent plasma protein extravasation in skin. Type of assay: in vivo, guinea-pig. The procedure: as §1, §2
The test system of assay [3] is zymosan-induced PMN cell accumulation in guinea-pig skin. Put plainly: Zymosan-induced PMN cell accumulation in skin. As to conditions: for % Inhibition of PMN cell accumulation: together with zymosan 0.2mg.site^-1.
Assay [4] deals with LPS-induced neutrophil accumulation. Put plainly: LPS-induced neutrophil accumulation in bronchoalveolar lavage fluid. Conditions: 0.1 mg.ml^-1 aerosol 30 min prior to LPS 100µg.ml^-1; 4 hours after challenge (LPS alone 141.3 ± 33.3, baseline 3.8 ± 1.2). It is filed as in vivo, guinea-pigs.
Procedure: (§3) Briefly, guinea-pigs (male Dunkin Hartley, 300-400g) were exposed to an aerosol of 100µg.ml^-1 E. coli lipopolysaccharide (LPS;026:B6, Sigma Ltd) or 100µg.ml^-1 platelet activating factor (PAF; Sigma Ltd.) for 10 min. […] The total leukocyte count of the bronchoalveolar lavage fluid (BALF) recovered was determined. A cytospin preparation was prepared from the BALF, fixed with methanol, stained with Wright's stain and a differential leukocyte count was carried out.
Assay [5] deals with PAF-induced eosinophil infiltration. Description: PAF-induced eosinophil infiltration in bronchoalveolar lavage fluid. It is filed as in vivo, guinea-pigs. As to conditions: inhalation 0.1mg.ml^-1 30 min prior to PAF 100µg.ml^-1; 24 hours after challenge (PAF alone 97.7 ± 18.8, baseline 53.3 ± 12.5).
Procedure: as §3
[6] abbreviates: Cavia porcellus, PMN, po, read-out: % Inhibition of PMN cell accumulation.

The term ED50 denotes the dose that gives a 50% effect, or the effect in half of the subjects. On to `CC(C)(C)NCC(O)c1ccc(O)c(CO)c1` (stereo not drawn) [salbutamol, reference compound], for which the ED50 in the assay on histamine-induced PPE (Cavia porcellus, po, 0.5 h, p.o., 30 min prior to histamine, read-out: ED50, inhibition of histamine-induced PPE) amounted to 0.02 mg/kg. Further, the “time after which there is substantial loss of activity against histamine induced PPE” value in the assay on histamine-induced PPE (equi-effective doses) turned out to be 2 h. In addition, the “inhibitory effect on zymosan-induced PPE” value in assay [1] (10-100mg.kg^-1 p.o.) is “no inhibitory effect”. In addition, in assay [2] (compared with salmeterol 10mg.kg^-1 p.o.), the “dose required for a comparable effect on granulocyte-independent PPE, relative to salmeterol” value is listed as “Approximately 10 fold”. Besides, the “inhibitory effect on PMN cell accumulation” value in assay [3] (10-100mg.kg^-1 p.o.) is on record as “no significant inhibitory effect”.

Usually inhibition stands for the change of the read-out against control, counted positive when it falls. As to `OCc1cc(C(O)CNCCCCCCOCCCCc2ccccc2)ccc1O` (stereo not drawn) [salmeterol, 4-hydroxy-α^1-[[[6-(4-phenylbutoxy)hexyl]amino]methyl]-1,3-benzenedimethanol], in assay [4], the BALF neutrophil count was 46.8 ± 9.1 x10^3 cells.ml^-1. Further, the BALF eosinophil count in assay [5] was 59.2 ± 19.8 x10^3 cells.ml^-1. For the same molecule, the “inhibition of histamine-induced PPE at the highest doses” value in the assay on histamine-induced PPE (aerosol, nebuliser concentration 0.001-1mg.ml^-1) is reported as “complete inhibition”. The “Zymosan-induced Granylocyte-dependent PPE” value is recorded as 51.7 in assay [1] (Intradermal 10^-8 (nmol.site^-1), co-administered with zymosan); 1.8 in assay [1] (Intradermal 10^-9 (nmol.site^-1), co-administered with zymosan); 47.0 in assay [1] (Oral 1.0 mg.kg^-1, 1 hour before zymosan 0.2mg.site^-1); 56.0 in assay [1] (Oral 10.0 mg.kg^-1, 1 hour before zymosan 0.2mg.site^-1). In addition, the “Histamine-induced Granulocyte Independent PPE” value was found to be 9.2 in assay [2] (Oral 1.0 mg.kg^-1, 1 hour before histamine 100ng.site^-1) and 58.5 in assay [2] (Oral 10.0 mg.kg^-1, 1 hour before histamine 100ng.site^-1). Further, in assay [3] (setting [6]), the inhibition at 1 mg/kg is 27%. Besides, the inhibition at 10 mg/kg in assay [3] (setting [6]) worked out at 59%. In addition, the “% Inhibition of PMN cell accumulation” value in assay [3] (Intradermal 10^-8 (nmol.site^-1)) was 51%; in assay [3] (Intradermal 10^-9 (nmol.site^-1)), 16%.

Values taken from EP1078629A2 (GLAXO GROUP LIMITED, priority 1989, dated 1991).
